This note sets out measurements from patent publication US20170136030A1, “TREATMENT OF MALARIA USING INHIBITORS OF THE ISPD ENZYME IN THE NON-MEVALONATE PATHWAY” (Washington University, priority 2014, published 2017).

A word on the IC50: it is the concentration that gives 50% inhibition. A word on the EC50: it is the concentration giving half of the maximal effect. Low values mean an effect from little substance, high ones a need for much substance.

The structures appear in SMILES notation.

purified recombinant Plasmodium falciparum methylerythritol cytidyltransferase (PfIspD) enzyme, sequence (Q8I273 entry or part of it): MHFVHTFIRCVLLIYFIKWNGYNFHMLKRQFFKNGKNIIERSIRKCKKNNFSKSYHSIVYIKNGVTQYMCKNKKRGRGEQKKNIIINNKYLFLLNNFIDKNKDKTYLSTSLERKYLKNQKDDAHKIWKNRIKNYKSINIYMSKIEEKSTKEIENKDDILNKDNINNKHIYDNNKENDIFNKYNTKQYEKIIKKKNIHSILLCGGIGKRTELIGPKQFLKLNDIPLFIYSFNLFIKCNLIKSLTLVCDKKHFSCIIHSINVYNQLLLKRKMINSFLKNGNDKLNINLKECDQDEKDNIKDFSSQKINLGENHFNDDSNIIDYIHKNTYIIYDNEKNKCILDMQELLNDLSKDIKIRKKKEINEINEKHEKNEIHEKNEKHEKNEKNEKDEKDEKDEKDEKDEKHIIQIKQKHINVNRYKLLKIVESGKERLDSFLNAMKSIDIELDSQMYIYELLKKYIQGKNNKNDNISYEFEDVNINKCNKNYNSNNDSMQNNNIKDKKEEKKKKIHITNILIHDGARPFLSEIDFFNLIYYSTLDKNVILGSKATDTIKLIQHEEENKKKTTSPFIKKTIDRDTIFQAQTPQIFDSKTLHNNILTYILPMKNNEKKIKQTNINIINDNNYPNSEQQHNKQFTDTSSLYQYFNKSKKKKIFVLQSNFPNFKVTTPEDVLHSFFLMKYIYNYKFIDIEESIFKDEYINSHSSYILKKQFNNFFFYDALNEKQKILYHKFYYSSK

For the first experiment, the system named is MEP pathway. Put plainly: Metabolic profiling of inhibitor-treated malaria parasites (LC-MS/MS). Type of experiment: cell-based. As to conditions: parasite lines treated with compound, FIG. 3. An excerpt: A quantitative liquid chromatography-mass spectrometry method (LC-MS/MS) was developed to determine the cellular levels of metabolites in the MEP pathway. This method allows determination of whether the MEP pathway has been inhibited in malaria parasites treated with MEP pathway inhibitors of the present invention. This method has been previously used to validate the cellular metabolic effects of the known MEP pathway inhibitor fosmidomycin (Zhang et al., Biochemistry 2011).
As to `COc1ccc(-c2cccc(-n3sc4ccccc4c3=O)c2)cc1` [Compound 41, 2-(4′-methoxy-[1,1′biphenyl]-3-yl)benzo[d]isothiazol-3(2H)-one], the “cellular level of downstream MEP pathway metabolite CDP-ME” value was “significantly decreased” and the “cellular level of downstream MEP pathway metabolite cMEPP” value is given as “significantly decreased”.

Another experiment addresses purified recombinant Plasmodium falciparum methylerythritol cytidyltransferase (PfIspD) enzyme (Plasmodium falciparum, UniProt Q8I273). Kind of experiment: biochemical. As to conditions: nonlinear regression. The protocol:
Compounds listed in Table 1 were tested for activity against purified recombinant Plasmodium falciparum methylerythritol cytidyltransferase (PfIspD) enzyme. […] Each compound was evaluated for enzymatic inhibition over several concentrations. Nonlinear regression analysis (GraphPad Prism) was used to determine the half-maximal inhibitory concentration (IC50) for each compound.
Consider `O=c1c2ccccc2sn1-c1cc(S(=O)(=O)N2CCOCC2)ccc1N1CCCC1` [Compound 2, 1,2-benzisothiazol-3(2H)-one,2-[-5-(4-morpholinylsulfonyl)-2-(1-pyrrolidinyl)phenyl]], for which the IC50 is 7.26 µM.

Consider `Cc1ccc(-n2sc3ccccc3c2=O)cc1S(=O)(=O)N1CCOCC1` [Compound 3, 1,2-benzisothiazol-3(2H)-one,2-[4-methyl-3-(4-morpholinylsulfonyl)phenyl]], for which the IC50 is 0.506 µM.

In the case of `O=c1c2ccccc2sn1-c1ccc(S(=O)(=O)N2CCOCC2)cc1` [Compound 4, 1,2-benzisothiazol-3(2H)-one,2-[4-(4-morpholinylsulfonyl)phenyl]], the IC50 was 30.9 µM.

As to `O=c1c2ccccc2sn1-c1cccc(S(=O)(=O)N2CCOCC2)c1` [Compound 10, 2-(3-morpholinosulfonyl)phenylbenzo[d]isothiazol-3(2H)-one], the IC50 amounted to 0.656 µM.

Turning to `CSc1ccccc1C(=O)Nc1cccc(S(=O)(=O)N2CCOCC2)c1` [Compound 11, 2-(methylthio)-(N-((3-morpholinosulfonyl)phenyl)benzamide)], the IC50 was more than 200 µM.

For the compound `Cc1nnsc1C(=O)Nc1cc(S(=O)(=O)N2CCCCC2)ccc1O` [Compound 19, N-[2-hydroxy-5-(piperidine-1-sulfonyl)phenyl]-4-methyl-1,2,3-thiadiazole-5-carboxamide], the IC50 turned out to be 58.9 µM.

As for `COc1ccc(S(=O)(=O)N2CCOCC2)cc1-n1sc2ccccc2c1=O` [Compound 24, 2-(2-methoxy-5-(morpholinosulfonyl)phenyl)benzo[d]isothiazol-3(2H)-one], the IC50 worked out at 1.08 µM.

Consider `COc1ccc(S(=O)(=O)N2CCCCC2)cc1-n1sc2ccccc2c1=O` [Compound 25, 2-(2-methoxy-5-(piperidin-1-ylsulfonyl)phenyl)benzo[d]isothiazol-3(2H)-one], for which the IC50 stood at 0.809 µM.

For `COc1ccc(S(=O)(=O)N2CCC(F)CC2)cc1-n1sc2ccccc2c1=O` [Compound 26, 2-(5-((4-fluoropiperidin-1-yl)sulfonyl)-2-methoxyphenyl)benzo[d]isothiazol-3(2H)-one], the IC50 worked out at 0.866 µM.

On to `COc1ccc(S(=O)(=O)N2CCCOCC2)cc1-n1sc2ccccc2c1=O` [Compound 27, 2-(5-((1,4-oxazepan-4-yl)sulfonyl)-2-methoxyphenyl)benzo[d]isothiazol-3(2H)-one], for which the IC50 was 0.542 µM.

Turning to `COc1ccc(S(=O)(=O)N2CCN(C)CC2)cc1-n1sc2ccccc2c1=O` [Compound 28, 2-(2-methoxy-5-((4-methylpiperazin-1-yl)sulfonyl)phenyl)benzo[d]isothiazol-3(2H)-one], the IC50 came to 1.95 µM.

Regarding `COc1ccc(S(=O)(=O)N2CCNCC2)cc1-n1sc2ccccc2c1=O` [Compound 36, 2-(2-methoxy-5-(piperazin-1-ylsulfonyl)phenyl)benzo[d]isothiazol-3(2H)-one], the IC50 was found to be 1.15 µM.

For `O=c1c2ccccc2sn1-c1cc(S(=O)(=O)N2CCOCC2)ccc1O` [Compound 37, 2-(2-hydroxy-5-(morpholinosulfonyl)phenyl)benzo[d]isothiazol-3(2H)-one], the IC50 was found to be 0.71 µM.

With `O=c1c2ccccc2sn1-c1cc(S(=O)(=O)N2CCC(F)CC2)ccc1O` [Compound 38, 2-(5-((4-fluoropiperidin-1-yl)sulfonyl)-2-hydroxyphenyl)benzo[d]isothiazol-3(2H)-one], the IC50 was 13.2 µM.

In the case of `O=c1c2ccccc2sn1-c1cc(S(=O)(=O)N2CCCCC2)ccc1O` [Compound 39, 2-(2-hydroxy-5-(piperidin-1-ylsulfonyl)phenyl)benzo[d]isothiazol-3(2H)-one], the half-maximal inhibitory concentration (IC50) worked out at 5.39 µM.

`O=c1c2ccccc2sn1-c1cc(S(=O)(=O)N2CCCOCC2)ccc1O` [Compound 40, 2-(5-((1,4-oxazepan-4-yl)sulfonyl)-2-hydroxyphenyl)benzo[d]isothiazol-3(2H)-one]: the IC50 came out at 1.95 µM.

With `O=c1c2ccccc2sn1-c1cccc(-c2ccsc2)c1` [Compound 42, 2-(3-(thiophen-3-yl)phenyl)benzo[d]isothiazol-3(2H)-one], the IC50 came to 0.29 µM.

Regarding `O=c1c2ccccc2sn1-c1cccc(-c2ccc(Cl)cc2)c1` [Compound 43, 2-(4′-chloro-[1,1′biphenyl]-3-yl)benzo[d]isothiazol-3(2H)-one], the half-inhibitory concentration (IC50) came out at 0.16 µM.

On to `O=c1c2ccccc2sn1-c1cccc(-c2ccc(C(F)(F)F)cc2)c1` [Compound 44, 2-(4′-(trifluoromethyl)-[1,1′biphenyl]-3-yl)benzo[d]isothiazol-3(2H)-one], for which the IC50 worked out at 0.31 µM.

Consider `COC(=O)c1cccc(-n2sc3ccccc3c2=O)c1` [Compound 45, Methyl-3-(3-oxobenzo[d]isothiazol-2(3H)-yl)benzoate], for which the IC50 stood at 0.15 µM.

As to `O=C(O)c1cccc(-n2sc3ccccc3c2=O)c1` [Compound 46, 3-(3-oxobenzo[d]isothiazol-2(3H)-yl)benzoic acid], the IC50 was 0.48 µM.

On to `O=c1c2ccccc2sn1-c1ccccn1` [Compound 47, 2-(pyridin-2-yl)benzo[d]isothiazol-2(3H)-one], for which the IC50 amounted to 0.17 µM.

Consider `O=c1c2ccccc2sn1Cc1ccccc1` [Compound 48, 2-benzylbenzo[d]isothiazol-2(3H)-one], for which the IC50 was found to be 2.43 µM.

`O=c1c2ccccc2sn1Cc1ccc(Cl)cc1` [Compound 49, 2-(4-chlorobenzyl)benzo[d]isothiazol-2(3H)-one]: the IC50 is 0.62 µM.

For `O=c1[nH]sc2ncccc12` [Compound 50, Isothiazolo[5,4-b]pyridin-3(2H)-one], the IC50 was determined as 56.2 µM.

Take `COc1ccc(Cn2sc3ccccc3c2=O)cc1` [Compound 51, 2-(4-methoxybenzyl)benzo[d]isothiazol-2(3H)-one]: the IC50 was 1.34 µM.

`O=c1c2cccnc2sn1Cc1ccccc1` [Compound 52, 2-benzylisothiazolo[5,4-b]pyridin-3(2H)-one]: the IC50 amounted to 1.52 µM.

The next experiment deals with cultured Plasmodium falciparum parasite strain 3D7. Kind of experiment: Antimalarial efficacy, parasite growth inhibition by Sybr Green staining. It counts as cell-based. The settings on record: P. falciparum strain 3D7. The protocol:
Each compound was tested for the ability to inhibit growth of a standard cultured Plasmodium falciparum parasite strain 3D7. Parasite growth was monitored by staining with the DNA fluorophore Sybr Green, as previously described for the antimalarial fosmidomycin in Zhang et al., Biochemistry, (2011) 50(17), 3570-3577. Each compound was evaluated for antimalarial activity over several concentrations. Nonlinear regression analysis was used to determine the concentration of half-maximal antimalarial efficacy (EC50) for each compound.
Turning to `O=c1c2ccccc2sn1-c1cc(S(=O)(=O)N2CCOCC2)ccc1N1CCCC1` [Compound 2, 1,2-benzisothiazol-3(2H)-one,2-[-5-(4-morpholinylsulfonyl)-2-(1-pyrrolidinyl)phenyl]], the EC50 was 17.1 µM.

In turn, `Cc1ccc(-n2sc3ccccc3c2=O)cc1S(=O)(=O)N1CCOCC1` [Compound 3, 1,2-benzisothiazol-3(2H)-one,2-[4-methyl-3-(4-morpholinylsulfonyl)phenyl]] returned an EC50 of 4.96 µM.

In the case of `O=c1c2ccccc2sn1-c1ccc(S(=O)(=O)N2CCOCC2)cc1` [Compound 4, 1,2-benzisothiazol-3(2H)-one,2-[4-(4-morpholinylsulfonyl)phenyl]], the EC50 was found to be 20.8 µM.

Consider `O=c1c2ccccc2sn1-c1cccc(S(=O)(=O)N2CCOCC2)c1` [Compound 10, 2-(3-morpholinosulfonyl)phenylbenzo[d]isothiazol-3(2H)-one], for which the EC50 is 7.4 µM.

`CSc1ccccc1C(=O)Nc1cccc(S(=O)(=O)N2CCOCC2)c1` [Compound 11, 2-(methylthio)-(N-((3-morpholinosulfonyl)phenyl)benzamide)] yielded an EC50 of 82.6 µM. This EC50 lies about 11-fold higher than the previous one.

Take `Cc1nnsc1C(=O)Nc1cc(S(=O)(=O)N2CCCCC2)ccc1O` [Compound 19, N-[2-hydroxy-5-(piperidine-1-sulfonyl)phenyl]-4-methyl-1,2,3-thiadiazole-5-carboxamide]: the half-maximal effective concentration (EC50) was more than 200 µM.

In turn, `COc1ccc(S(=O)(=O)N2CCOCC2)cc1-n1sc2ccccc2c1=O` [Compound 24, 2-(2-methoxy-5-(morpholinosulfonyl)phenyl)benzo[d]isothiazol-3(2H)-one] came in with an EC50 of 8.61 µM. That is a single-digit micromolar value.

In turn, `COc1ccc(S(=O)(=O)N2CCCCC2)cc1-n1sc2ccccc2c1=O` [Compound 25, 2-(2-methoxy-5-(piperidin-1-ylsulfonyl)phenyl)benzo[d]isothiazol-3(2H)-one] registered an EC50 of 14.3 µM.

`COc1ccc(S(=O)(=O)N2CCC(F)CC2)cc1-n1sc2ccccc2c1=O` [Compound 26, 2-(5-((4-fluoropiperidin-1-yl)sulfonyl)-2-methoxyphenyl)benzo[d]isothiazol-3(2H)-one] came in with an EC50 of 6.11 µM.

In turn, `COc1ccc(S(=O)(=O)N2CCCOCC2)cc1-n1sc2ccccc2c1=O` [Compound 27, 2-(5-((1,4-oxazepan-4-yl)sulfonyl)-2-methoxyphenyl)benzo[d]isothiazol-3(2H)-one] gave an EC50 of 9.1 µM.

Regarding `COc1ccc(S(=O)(=O)N2CCN(C)CC2)cc1-n1sc2ccccc2c1=O` [Compound 28, 2-(2-methoxy-5-((4-methylpiperazin-1-yl)sulfonyl)phenyl)benzo[d]isothiazol-3(2H)-one], the EC50 is 2.47 µM.

The compound `COc1ccc(S(=O)(=O)N2CCNCC2)cc1-n1sc2ccccc2c1=O` [Compound 36, 2-(2-methoxy-5-(piperazin-1-ylsulfonyl)phenyl)benzo[d]isothiazol-3(2H)-one] registered an EC50 of 0.97 µM.

As for `O=c1c2ccccc2sn1-c1cc(S(=O)(=O)N2CCOCC2)ccc1O` [Compound 37, 2-(2-hydroxy-5-(morpholinosulfonyl)phenyl)benzo[d]isothiazol-3(2H)-one], the EC50 was determined as 7.59 µM.

Regarding `O=c1c2ccccc2sn1-c1cc(S(=O)(=O)N2CCC(F)CC2)ccc1O` [Compound 38, 2-(5-((4-fluoropiperidin-1-yl)sulfonyl)-2-hydroxyphenyl)benzo[d]isothiazol-3(2H)-one], a half-maximal response (EC50) required 10.1 µM.

`O=c1c2ccccc2sn1-c1cc(S(=O)(=O)N2CCCCC2)ccc1O` [Compound 39, 2-(2-hydroxy-5-(piperidin-1-ylsulfonyl)phenyl)benzo[d]isothiazol-3(2H)-one] registered an EC50 of 9.21 µM.

As for `O=c1c2ccccc2sn1-c1cc(S(=O)(=O)N2CCCOCC2)ccc1O` [Compound 40, 2-(5-((1,4-oxazepan-4-yl)sulfonyl)-2-hydroxyphenyl)benzo[d]isothiazol-3(2H)-one], the EC50 stood at 14.6 µM.

Take `COc1ccc(-c2cccc(-n3sc4ccccc4c3=O)c2)cc1` [Compound 41, 2-(4′-methoxy-[1,1′biphenyl]-3-yl)benzo[d]isothiazol-3(2H)-one]: the EC50 is 0.77 µM.

The compound `O=c1c2ccccc2sn1-c1cccc(-c2ccsc2)c1` [Compound 42, 2-(3-(thiophen-3-yl)phenyl)benzo[d]isothiazol-3(2H)-one] gave an EC50 of 2.88 µM.

Compound `O=c1c2ccccc2sn1-c1cccc(-c2ccc(Cl)cc2)c1` [Compound 43, 2-(4′-chloro-[1,1′biphenyl]-3-yl)benzo[d]isothiazol-3(2H)-one] returned an EC50 of 0.61 µM.

The compound `O=c1c2ccccc2sn1-c1cccc(-c2ccc(C(F)(F)F)cc2)c1` [Compound 44, 2-(4′-(trifluoromethyl)-[1,1′biphenyl]-3-yl)benzo[d]isothiazol-3(2H)-one] yielded an EC50 of 0.45 µM.

`COC(=O)c1cccc(-n2sc3ccccc3c2=O)c1` [Compound 45, Methyl-3-(3-oxobenzo[d]isothiazol-2(3H)-yl)benzoate] returned an EC50 of 11.7 µM.

The compound `O=C(O)c1cccc(-n2sc3ccccc3c2=O)c1` [Compound 46, 3-(3-oxobenzo[d]isothiazol-2(3H)-yl)benzoic acid] displayed a concentration giving a half-maximal response (EC50) of more than 200 µM.

The compound `O=c1c2ccccc2sn1-c1ccccn1` [Compound 47, 2-(pyridin-2-yl)benzo[d]isothiazol-2(3H)-one] came in with an EC50 of 70 µM.

The compound `O=c1c2ccccc2sn1Cc1ccc(Cl)cc1` [Compound 49, 2-(4-chlorobenzyl)benzo[d]isothiazol-2(3H)-one] yielded an EC50 of 17.9 µM. Against the preceding compound, the EC50 is about 3.9-fold lower.

Compound `O=c1[nH]sc2ncccc12` [Compound 50, Isothiazolo[5,4-b]pyridin-3(2H)-one] showed an EC50 of 160 µM.

As for `COc1ccc(Cn2sc3ccccc3c2=O)cc1` [Compound 51, 2-(4-methoxybenzyl)benzo[d]isothiazol-2(3H)-one], the EC50 amounted to 67.6 µM.
